# From patent US10550111B2, “Pyrimidine urea compound containing isoxazolines and use thereof” (SHENYANG SINOCHEM AGROCHEMICALS R&D CO., LTD, priority 2014, dated 2020)
# Assays:
# Type in all cases: in vivo
# [1] = test system: broad-leaf weeds and grass weeds; experiment: General screening of herbicidal activity in greenhouse; settings: 1000 g a.i./hm^2;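 also: 0 means no visible effect and 100 means all weeds dead or not emerged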
# Method in brief: (§1)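 Plants were raised from seed under greenhouse conditions and treated with emulsifiable-concentrate compounds by track sprayer, either 24 hours after sowing or post-emergence at the 2- to 3-leaf (grass) or 2- to 4-leaf (broad-leaf) stage. Damage was assessed visually as percent growth inhibition.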
# [2] = test system: Abutilon theophrasti Medic.; experiment: Bioassay of herbicidal activity in greenhouse (further screening)
# Method in brief: as §1
# [3] = test system: Setaria glauca (L.) Beauv.; experiment: as above
# Method in brief: as §1
# [4] = test system: Echinochloa crus-galli (L.) Beauv.; experiment: as above
# Method in brief: as §1
# [5] = test system: Zinnia elegans Jacq.; experiment: as above
# Method in brief: as §1
# [6] = test system: maize; experiment: Crop safety study in greenhouse; settings: 7.5-37.5 g a.i./hm^2; pre-emergence and post-emergence application
# Excerpt: (§2) Seeds of soybean, cotton, maize, wheat and rice were sown in nutrition soil in paper pot (9 cm diameter), covered with soil in 1 cm and grown in the greenhouse under good growth conditions (temperature, atmospheric humidity, water supply). The compounds of the present invention as emulsifiable concentrate, were applied in pre-emergence and post-emergence treatment by track sprayer (Engineer Research Ltd., pressure 1.95 kg/cm^2, volume 500 L/hm^2, track speed 1.48 km/h). Pre-emergence treatment was conducted after seeding 24 hours and post-emergence treatment was done when the respective weeds reached predetermined leaf stage (soybean and cotton at 2- to 4-leaf stage and maize, wheat and rice at 3-leaf stage), the state of growth of the respective crops were visually observed to determine the safety in accordance with the following evaluation standard.
# (§3) Safety rating scale (%): 0 means no damage to crops; 100 means to kill crops completely.
# [7] = test system: rice; experiment: Crop safety study in greenhouse; settings: 7.5-37.5 g a.i./hm^2; pre-emergence and post-emergence application
# Excerpt: as §2, §3
# [8] = test system: wheat; experiment: Crop safety study in greenhouse; settings: 7.5-37.5 g a.i./hm^2; pre-emergence and post-emergence application
# Excerpt: as §2, §3
smiles,measurement,setting,value
CC(=O)OCC1(C)CC(c2cc(-n3c(=O)cc(C(F)(F)F)n(C)c3=O)c(F)cc2Cl)=NO1 (centres unmarked) [Compound 43],pre-emergence and post-emergence herbicidal activity against broad-leaf weeds and grass weeds,[1],good
same,"Growth inhibition rate, Post-emergence treatment, Abutilon theophrasti Medic.",[2]; dose 7.5 g a.i./hm^2,100%
same,"Growth inhibition rate, Post-emergence treatment, Abutilon theophrasti Medic.",[2]; dose 15 g a.i./hm^2,100%
same,"Growth inhibition rate, Post-emergence treatment, Abutilon theophrasti Medic.",[2]; dose 37.5 g a.i./hm^2,100%
same,"Growth inhibition rate, Post-emergence treatment, Abutilon theophrasti Medic.",[2]; dose 150 g a.i./hm^2,100%
same,"Growth inhibition rate, Post-emergence treatment, Abutilon theophrasti Medic.",[2]; dose 600 g a.i./hm^2,100%
same,"Growth inhibition rate, Pre-emergence treatment, Abutilon theophrasti Medic.",[2]; dose 7.5 g a.i./hm^2,100%
same,"Growth inhibition rate, Pre-emergence treatment, Abutilon theophrasti Medic.",[2]; dose 15 g a.i./hm^2,100%
same,"Growth inhibition rate, Pre-emergence treatment, Abutilon theophrasti Medic.",[2]; dose 37.5 g a.i./hm^2,100%
same,"Growth inhibition rate, Pre-emergence treatment, Abutilon theophrasti Medic.",[2]; dose 150 g a.i./hm^2,100%
same,"Growth inhibition rate, Pre-emergence treatment, Abutilon theophrasti Medic.",[2]; dose 600 g a.i./hm^2,100%
same,"Growth inhibition rate, Post-emergence treatment, Setaria glauca (L.) Beauv.",[3]; dose 7.5 g a.i./hm^2,70%
same,"Growth inhibition rate, Post-emergence treatment, Setaria glauca (L.) Beauv.",[3]; dose 15 g a.i./hm^2,80%
same,"Growth inhibition rate, Post-emergence treatment, Setaria glauca (L.) Beauv.",[3]; dose 37.5 g a.i./hm^2,25%
same,"Growth inhibition rate, Post-emergence treatment, Setaria glauca (L.) Beauv.",[3]; dose 150 g a.i./hm^2,95%
same,"Growth inhibition rate, Post-emergence treatment, Setaria glauca (L.) Beauv.",[3]; dose 600 g a.i./hm^2,100%
same,"Growth inhibition rate, Pre-emergence treatment, Setaria glauca (L.) Beauv.",[3]; dose 7.5 g a.i./hm^2,20%
same,"Growth inhibition rate, Pre-emergence treatment, Setaria glauca (L.) Beauv.",[3]; dose 15 g a.i./hm^2,35%
same,"Growth inhibition rate, Pre-emergence treatment, Setaria glauca (L.) Beauv.",[3]; dose 37.5 g a.i./hm^2,90%
same,"Growth inhibition rate, Pre-emergence treatment, Setaria glauca (L.) Beauv.",[3]; dose 150 g a.i./hm^2,98%
same,"Growth inhibition rate, Pre-emergence treatment, Setaria glauca (L.) Beauv.",[3]; dose 600 g a.i./hm^2,100%
same,"Growth inhibition rate, Post-emergence treatment, Echinochloa crus-galli (L.) Beauv.",[4]; dose 7.5 g a.i./hm^2,10%
same,"Growth inhibition rate, Post-emergence treatment, Echinochloa crus-galli (L.) Beauv.",[4]; dose 15 g a.i./hm^2,20%
same,"Growth inhibition rate, Post-emergence treatment, Echinochloa crus-galli (L.) Beauv.",[4]; dose 37.5 g a.i./hm^2,10%
same,"Growth inhibition rate, Post-emergence treatment, Echinochloa crus-galli (L.) Beauv.",[4]; dose 150 g a.i./hm^2,90%
same,"Growth inhibition rate, Post-emergence treatment, Echinochloa crus-galli (L.) Beauv.",[4]; dose 600 g a.i./hm^2,100%
same,"Growth inhibition rate, Pre-emergence treatment, Echinochloa crus-galli (L.) Beauv.",[4]; dose 7.5 g a.i./hm^2,10%
same,"Growth inhibition rate, Pre-emergence treatment, Echinochloa crus-galli (L.) Beauv.",[4]; dose 15 g a.i./hm^2,60%
same,"Growth inhibition rate, Pre-emergence treatment, Echinochloa crus-galli (L.) Beauv.",[4]; dose 37.5 g a.i./hm^2,90%
same,"Growth inhibition rate, Pre-emergence treatment, Echinochloa crus-galli (L.) Beauv.",[4]; dose 150 g a.i./hm^2,95%
same,"Growth inhibition rate, Pre-emergence treatment, Echinochloa crus-galli (L.) Beauv.",[4]; dose 600 g a.i./hm^2,100%
same,"Growth inhibition rate, Post-emergence treatment, Zinnia elegans Jacq.",[5]; dose 7.5 g a.i./hm^2,98%
same,"Growth inhibition rate, Post-emergence treatment, Zinnia elegans Jacq.",[5]; dose 15 g a.i./hm^2,100%
same,"Growth inhibition rate, Post-emergence treatment, Zinnia elegans Jacq.",[5]; dose 37.5 g a.i./hm^2,100%
same,"Growth inhibition rate, Post-emergence treatment, Zinnia elegans Jacq.",[5]; dose 150 g a.i./hm^2,100%
same,"Growth inhibition rate, Post-emergence treatment, Zinnia elegans Jacq.",[5]; dose 600 g a.i./hm^2,100%
same,"Growth inhibition rate, Pre-emergence treatment, Zinnia elegans Jacq.",[5]; dose 7.5 g a.i./hm^2,0%
same,"Growth inhibition rate, Pre-emergence treatment, Zinnia elegans Jacq.",[5]; dose 15 g a.i./hm^2,25%
same,"Growth inhibition rate, Pre-emergence treatment, Zinnia elegans Jacq.",[5]; dose 37.5 g a.i./hm^2,50%
same,"Growth inhibition rate, Pre-emergence treatment, Zinnia elegans Jacq.",[5]; dose 150 g a.i./hm^2,100%
same,"Growth inhibition rate, Pre-emergence treatment, Zinnia elegans Jacq.",[5]; dose 600 g a.i./hm^2,100%
same,"Crop safety, maize",[6],good safety
same,"Crop safety, rice",[7],good safety
same,"Crop safety, wheat",[8],good safety
